# Tests used:
# COX-1 = molecular target: T1, COX-1 (Ovis aries, UniProt P05979); test: COX-1 inhibition assay in vitro (COX Inhibitor Screening Kit, fluorometric); assay type: biochemical
# T1 construct: purchased BioVision, Inc
# T1 sequence (P05979 25-600): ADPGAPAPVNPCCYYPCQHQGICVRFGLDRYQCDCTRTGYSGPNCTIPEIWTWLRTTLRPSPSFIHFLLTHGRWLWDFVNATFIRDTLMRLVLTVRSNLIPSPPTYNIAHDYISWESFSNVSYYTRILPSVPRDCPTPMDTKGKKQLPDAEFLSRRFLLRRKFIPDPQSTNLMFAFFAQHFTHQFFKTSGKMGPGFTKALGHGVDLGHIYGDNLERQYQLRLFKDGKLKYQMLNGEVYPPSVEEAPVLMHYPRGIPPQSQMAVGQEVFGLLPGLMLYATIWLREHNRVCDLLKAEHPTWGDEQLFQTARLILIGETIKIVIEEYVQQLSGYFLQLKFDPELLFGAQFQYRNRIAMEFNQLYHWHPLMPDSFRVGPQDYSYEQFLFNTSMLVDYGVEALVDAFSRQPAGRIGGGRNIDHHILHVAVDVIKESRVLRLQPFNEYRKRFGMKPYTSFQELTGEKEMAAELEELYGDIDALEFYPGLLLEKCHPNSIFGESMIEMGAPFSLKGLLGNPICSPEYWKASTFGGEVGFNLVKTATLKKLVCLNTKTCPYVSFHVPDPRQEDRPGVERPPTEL
# Description: Simply, different concentrations of the test compound solution were added to the mixed solution containing COX-1/COX-2 enzyme (10 µL) and Assay Buffer (960 µL, 0.1 M Tris-HCl pH 8.0 containing 5 µM EDTA and 2 µM phenol). […] The IC50 values were calculated as described above.
# RAW 264.7 cells = test: Cell viability assay (MTT); assay type: cell-based, Murine; conditions: RAW264.7 cells, concentrations ranging from 5 to 50 µM, 24 h
# Description: Murine RAW 264.7 macrophages were obtained from the American Type Culture Collection (ATCC, USA). The cells were incubated in DMEM media supplemented with 10% FBS, 100 U/mL penicillin and […] streptomycin at 37 °C with 5% CO2. Cell viability was assessed using the MTT assay. RAW 264.7 cells were inoculated in 96-well plate at a density of 1.0 × 10^5 cells per well. After incubated for 24 h, the cells were treated with various concentrations of the compound. After an additional 24-h incubation, 20 µL of 0.5 mg/mL MTT reagent was added to wells and incubated for another 4 h. After 4 h, cell culture media was removed and DMOS was added into each well, and then, the optical density was measured at 570 nm. The IC50 values were determined by GraphPad Prism 6.
# [1] = system: NO production in RAW 264.7 macrophages; test: Measurement of LPS-induced NO production (Griess); assay type: cell-based, Murine; conditions: RAW264.7, 2 h pre-treatment (0–20 µM), LPS 200 ng/mL 24 h
# Description: Murine RAW 264.7 macrophages were obtained from the American Type Culture Collection (ATCC, USA). The cells were incubated in DMEM media supplemented with 10% FBS, 100 U/mL penicillin and […] streptomycin at 37 °C with 5% CO2. The RAW 264.7 macrophages were inoculated at 96-well plates and were pre-treated with vehicle or 6n (0–20 µM dose range) for 2 h and then stimulated with LPS (200 ng/mL) for 24 h. NO concentration in the medium was determined using Griess reagent kit (Beyotime, China) at 540 nm with a microplate reader (MQX200, Bio-Tek, USA) and calculated the inhibition rate of NO.
# [2] = system: iNOS expression in RAW264.7 cells; test: Western blot of LPS-induced iNOS expression; assay type: cell-based, Murine; conditions: RAW264.7, LPS 200 ng/mL 24 h
# Description: (§1) The cell in 96-well plates were treated as described above and then stimulated with LPS (200 ng/mL) for 24 h. The cells were harvested and lysed in an extraction lysis buffer (Beyotime Biotechnology, Shanghai, China) containing protease inhibitors. The protein concentration was determined using a BCA protein assay kit (Thermo Scientific, 23227). The whole cell lysates were separated by 10% sodium dodecyl sulphate-polyacrylamide gel electrophoresis and transferred to a nitrocellulose membrane. Each membrane was incubated with Tris-buffered saline (pH 7.6, containing 0.05% Tween-20 and 5% non-fat milk). The nitrocellulose membrane was incubated with the primary antibody against p-JNK1/2, JNK1/2, p-p38, p38, p-ERK1/2, ERK1/2, IκBa, NF-κB p65, COX-2, iNOS or β-Actin (Abcam, Cambridge, UK). Immunoreactive bands were detected by incubating with horseradish peroxidase-conjugated secondary antibodies, and visualised using enhanced chemiluminescence reagents (Bio-Rad, Hercules, CA).
# (§2) Figure 6. […] Cell viability was evaluated using the MTT assay. NO production was measured using nitrite and nitrate assay. iNOS and COX-2 expression were detected by Western blot. (A) Cell viability assay; (B) Quantitative analysis of NO productions; (C) Quantitative analysis of iNOS expressions, (D) Quantitative analysis of COX-2 expressions. β-actin was used as loading control.
# [3] = system: COX-2 expression in RAW264.7 cells; test: Western blot of LPS-induced COX-2 expression; assay type: cell-based, Murine; conditions: RAW264.7, LPS 200 ng/mL 24 h
# Description: as §1, §2
# [4] = system: p38 phosphorylation in RAW264.7 cells; test: Western blot of LPS-induced p38 phosphorylation; assay type: cell-based, Murine; conditions: RAW264.7, 5, 10, 20 μM, LPS 200 ng/mL
# Description: as §1
# (§3) Figure 7. Compound 6n inhibited LPS-induced MAPK-signalling activation in RAW264.7 cells. RAW264.7 cells were co-incubated with 6n (5, 10, 20 μM) and LPS (200 ng/mL) for 30 min. The levels of p38, JNK, ERK1/2 and their phosphorylated forms were analysed using western blot.
# [5] = system: ERK phosphorylation in RAW264.7 cells; test: Western blot of LPS-induced ERK phosphorylation; assay type: cell-based, Murine; conditions: RAW264.7, 5, 10, 20 μM, LPS 200 ng/mL
# Description: as §1, §3
compound,measurement,setting,value
"COc1ccccc1CN1CCN(C(=O)c2ccccc2C(C)=O)CC1 [Compound 6n, 1–(2-(4–(2-Methoxybenzyl)piperazine-1-carbonyl)phenyl)ethan-1-one]",IC50,COX-1,12.6 ± 0.79 µM
same,cytotoxicity,RAW 264.7 cells,no significant toxicity
same,LPS-induced NO production,[1],reduced LPS-induced NO production in a dose-dependent manner
same,LPS-induced expression of iNOS,[2],dose-dependent decrease
same,LPS-induced expression of COX-2,[3],dose-dependent decrease
same,p38 phosphorylation,[4],significantly lower
same,phosphorylation of ERK,[5],no obvious effect
